Legend:
enzyme R39 = enzyme R39 (Actinomadura sp. R39, UniProt P39045); assay: Stability of the enzyme R39-antibiotic complex; format: binding; conditions: at 37° C.
Procedure: the extraordinary stability of the said complex, because, once formed it only breaks down very slowly. By way of example, the half-life of the complex formed between enzyme R39 and penicillin G is about 70 hours at 37° C.; and […]

[1] = target: T1, enzyme R39 (soluble D-alanyl-D-alanine carboxypeptidase produced by Actinomadura R39) (Actinomadura sp. R39, UniProt P39045); assay: Enzymatic determination of penicillin G in 50 μl milk samples, visual coloration (Example 1); format: biochemical; conditions: 1.5 picomole enzyme R39, 4 min + 1 min at 47° C.
T1 construct: added to milk or serum samples
Procedure: A series of 50 μl milk samples is prepared containing known concentrations of penicillin G, and two 50 μl milk samples free from penicillin G (blank and control).
1.5 picomole of enzyme R39, dissolved in 10 μl of 0.5M Hepes buffer (pH=8.0) containing 0.5M NaCl and 0.25M MgCl2, and 20 μl of an aqueous solution containing 50 mg/ml of D-alanine are added to each sample (control sample+samples containing penicillin G). In the blank sample, enzyme R39 dissolved in Hepes buffer is replaced by 10 μl of 0.5M Hepes buffer (pH=8.0), containing 0.5M NaCl and 0.25M MgCl2 (Hepes=4-hydroxyethyl-1-piperazineethanesulfonic acid). The mixture is incubated at 47° C. for 4 minutes.
Next, 5 μl of an aqueous solution containing 5 mg/ml [(N-benzoyl-D-alanyl)thio]-acetic acid and 10 μl of a phosphate buffer solution (pH=8.0; KH2 PO4 +K2 HPO4) containing 2 mg/ml of 5,5'-dithiobis(2-nitrobenzoic) acid are added and the mixture is incubated at 47° C. for 1 minute.
The colorations obtained in the various samples are then observed.

[2] = target: T1, enzyme R39 (soluble D-alanyl-D-alanine carboxypeptidase produced by Actinomadura R39); assay: Enzymatic determination of penicillin G in milk with [(N-phenylacetyl-D-alanyl)thio]-acetic acid as substrate (Example 4); format: biochemical; conditions: substrate [(N-phenylacetyl-D-alanyl)thio]-acetic acid
Procedure: The process is the same as in example 3, except that, after the first incubation, 120 μl of an aqueous solution containing 5 mg/ml of [(N-phenylacetyl-D-alanyl)thio]-acetic acid are added.

[3] = target: T1, enzyme R39 (soluble D-alanyl-D-alanine carboxypeptidase produced by Actinomadura R39); assay: Enzymatic determination of penicillin G in serum, spectrophotometer at 410 nm (Example 7); format: biochemical; design: Optical density (at 410 nm): scale not given here; conditions: for Optical density (at 410 nm): blank subtracted, supernatant diluted 10 times
Procedure: The procedure of example 3 is followed, but the 3 ml milk samples are replaced by 3 ml serum samples containing known concentrations of penicillin G.
Moreover, after the second incubation lasting 5 minutes, the samples are centrifuged and the supernatants are diluted 10 times with water.
Then, the optical density is measured with a spectrophotometer at 410 nm.
The values of the optical density mentioned in Table VII are obtained by subtracting the optical density value found for the blank sample from the optical density values found respectively for the control sample and for the other samples.

[4] = target: T1, enzyme R39 (soluble D-alanyl-D-alanine carboxypeptidase produced by Actinomadura R39); assay: Enzymatic determination of penicillin G in milk, substrate and reagent combined in a tablet (Example 8); format: biochemical; conditions: substrate + reagent as tablet
Procedure: The process is the same as in example 3. However, after the first incubation for a period of 10 minutes, a tablet is added which contains, 600 μg of [(N-benzoyl-D-alanyl)thio]-acetic acid and 600 μg of 5,5'-dithiobis(2-nitrobenzoic) acid.
This tablet has the following overall composition (in % by weight): […]

[5] = target: T1, enzyme R39 (soluble D-alanyl-D-alanine carboxypeptidase produced by Actinomadura R39); assay: Enzymatic determination of penicillin G in milk with various D-amino acids or glycine as activators (Example 5); format: biochemical
Procedure: The process is the same as in example 3, except that the aqueous solution containing 100 mg/ml of D-alanine (test I) is respectively replaced by an aqueous solution containing 100 mg/ml of D-phenylalanine (test II), of D-serine (test III), of D-histidine (test IV), of D-methionine (test V), of D-2-aminobutyric acid (test VI), or by an aqueous solution containing 200 mg/ml of glycine (test VII).

[6] = target: T1, enzyme R39 (soluble D-alanyl-D-alanine carboxypeptidase produced by Actinomadura R39); assay: Enzymatic determination of penicillin G in 3 ml milk samples (Example 3); format: biochemical; conditions: for Coloration: 24 picomoles enzyme R39, 10 min + 5 min
Procedure: The process is the same as in Example 1, except that:
the samples contain 3 ml of milk (instead of 50 μl);
24 picomoles (instead of 1.5 picomole) of enzyme R39 dissolved in 150 μl of 0.5M Hepes buffer (pH=8.0) and 600 μl of an aqueous solution containing 100 mg/ml of D-alanine are added to each sample;
the first incubation lasts 10 minutes (instead of 4 minutes);
120 μl (instead of 5 μl) of the aqueous solution of [(N-benzoyl-D-alanyl)thio]-acetic acid and 120 μl of a phosphate buffer solution (pH=8.0) containing 5 mg/ml of 5,5'-dithiobis(2-nitrobenzoic) acid are then added, and
the second incubation lasts 5 minutes (instead of 1 minute).

[7] = penicillin G 0.003 I.U./ml in 3 ml milk
[8] = penicillin G 0.006 I.U./ml in 3 ml milk

T1 sequence (P39045 50-515): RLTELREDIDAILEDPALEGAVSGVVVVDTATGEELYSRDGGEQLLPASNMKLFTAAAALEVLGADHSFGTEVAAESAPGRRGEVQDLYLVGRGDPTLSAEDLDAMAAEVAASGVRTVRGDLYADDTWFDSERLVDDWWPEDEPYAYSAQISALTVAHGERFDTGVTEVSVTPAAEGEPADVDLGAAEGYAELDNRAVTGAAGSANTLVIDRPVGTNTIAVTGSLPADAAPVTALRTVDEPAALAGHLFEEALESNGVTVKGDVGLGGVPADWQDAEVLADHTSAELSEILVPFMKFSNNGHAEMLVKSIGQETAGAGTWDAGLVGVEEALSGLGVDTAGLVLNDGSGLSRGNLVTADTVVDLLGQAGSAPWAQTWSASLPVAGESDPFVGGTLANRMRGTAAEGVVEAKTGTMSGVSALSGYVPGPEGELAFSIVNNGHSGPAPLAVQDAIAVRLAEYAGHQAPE
Chain of enzyme R39 (P39045 50-515): as above

With `CC1(C)S[C@@H]2[C@H](NC(=O)Cc3ccccc3)C(=O)N2[C@H]1C(=O)O` [penicillin G, benzyl penicillin (penicillin G)] the “half-life of the complex formed between enzyme R39 and the antibiotic” value (enzyme R39) was “about 70 hours”, the Coloration ([1]; penicillin G 0.004 I.U./ml in 50 μl milk) was “intense yellow” and the Coloration ([1]; penicillin G 0.008 I.U./ml in 50 μl milk) was “medium yellow”. The Coloration ([1]; penicillin G 0.012 I.U./ml in 50 μl milk) was “pale yellow”, the Coloration ([1]; penicillin G 0.016 I.U./ml in 50 μl milk) was “white” and the Coloration ([1]; penicillin G 0.020 I.U./ml in 50 μl milk) was “white”. For the same compound, the Coloration ([1]; penicillin G 0.025 I.U./ml in 50 μl milk) was “white”, the Coloration [2, 7] was “pale yellow” and the Coloration [2, 8] was “white”. For the same compound, the “Optical density (at 410 nm)” value ([3]; penicillin G 0.002 I.U./ml in 3 ml serum) was 226, the “Optical density (at 410 nm)” value ([3]; penicillin G 0.003 I.U./ml in 3 ml serum) was 175 and the “Optical density (at 410 nm)” value ([3]; penicillin G 0.004 I.U./ml in 3 ml serum) was 49. For the same compound, the “Optical density (at 410 nm)” value ([3]; penicillin G 0.006 I.U./ml in 3 ml serum) was 15, the “penicillin G concentration determined quantitatively with a spectrophotometer” value ([3]; serum) was 0.002 I.U./ml and the Coloration ([4]; penicillin G 0.002 (in 1.U.ml) in 3 ml milk) was “medium yellow”. The Coloration ([4]; penicillin G 0.003 (in 1.U.ml) in 3 ml milk) was “pale yellow”, the Coloration ([4]; penicillin G 0.004 (in 1.U.ml) in 3 ml milk) was “white” and the Coloration ([4]; penicillin G 0.006 (in 1.U.ml) in 3 ml milk) was “white”. For the same compound, the Coloration ([5]; penicillin G 0.003 I.U./ml in 3 ml milk, test I, activator D-alanine 100 mg/ml) was “pale yellow”, the Coloration ([5]; penicillin G 0.003 I.U./ml in 3 ml milk, test II, activator D-phenylalanine 100 mg/ml) was “pale yellow” and the Coloration ([5]; penicillin G 0.003 I.U./ml in 3 ml milk, test III, activator D-serine 100 mg/ml) was “pale yellow”. For the same compound, the Coloration ([5]; penicillin G 0.003 I.U./ml in 3 ml milk, test IV, activator D-histidine 100 mg/ml) was “pale yallow”, the Coloration ([5]; penicillin G 0.003 I.U./ml in 3 ml milk, test V, activator D-methionine 100 mg/ml) was “pale yellow” and the Coloration ([5]; penicillin G 0.003 I.U./ml in 3 ml milk, test VI, activator D-2-aminobutyric acid 100 mg/ml) was “pale yellow”. The Coloration ([5]; penicillin G 0.003 I.U./ml in 3 ml milk, test VII, activator glycine 200 mg/ml) was “pale yellow”, the Coloration ([5]; penicillin G 0.006 I.U./ml in 3 ml milk, test I, activator D-alanine 100 mg/ml) was “white” and the Coloration ([5]; penicillin G 0.006 I.U./ml in 3 ml milk, test II, activator D-phenylalanine 100 mg/ml) was “white”. The Coloration ([5]; penicillin G 0.006 I.U./ml in 3 ml milk, test III, activator D-serine 100 mg/ml) was “white”, the Coloration ([5]; penicillin G 0.006 I.U./ml in 3 ml milk, test IV, activator D-histidine 100 mg/ml) was “white” and the Coloration ([5]; penicillin G 0.006 I.U./ml in 3 ml milk, test V, activator D-methionine 100 mg/ml) was “white”. For the same compound, the Coloration ([5]; penicillin G 0.006 I.U./ml in 3 ml milk, test VI, activator D-2-aminobutyric acid 100 mg/ml) was “white”, the Coloration ([5]; penicillin G 0.006 I.U./ml in 3 ml milk, test VII, activator glycine 200 mg/ml) was “white” and the “penicillin G concentration in milk detected visually in large sample volumes” value ([6]; 3 ml milk, in 15 minutes) was 0.004 I.U. per ml. The Coloration ([6]; penicillin G 0.002 I.U./ml in 3 ml milk) was “medium yellow”, the Coloration [6, 7] was “pale yellow” and the Coloration ([6]; penicillin G 0.004 I.U./ml in 3 ml milk) was “white”. For the same compound, the Coloration [6, 8] was “white”.
